Test results published in patent US11999782B2, “Therapeutic agents for the treatment of diseases associated with undesired cell proliferation” (Fundació Privada Institutció Catalana de Recerca I Estudis …, priority 2009, dated 2024).

Assays:
[1] = test system: GICs (glioma initiating cells) / GBM neurospheres; assay: Self-renewal assay of GBM neurospheres (GICs derived from patients); format: cell-based, human; conditions: for number of newly formed neurospheres / total number of cells: GBM1, GBM2, GBM3 neurosphere cells, 7 days in the absence of growth factors, 100 pM TGFβ1 or 20 ng/ml LIF
Description: FIG. 1. Effect of TGFβ on the self-renewal of GIC derived from patients. (A) Representative images of PCTCs and neurospheres of GBM generated from samples of 3 different patients with GBM (GBM1, GBM2, GBM3). (B) Musashi-1 (Msi-1), Sox2, Nestin and β-actin were determined by means of RT-PCR analysis of PCTCs and neurospheres of 3 samples of human GBM. (C) 100,000 neurosphere (nsph.) or PCTC cells obtained from samples of GBM1, GBM2 and GBM3 tumors were intracranially inoculated in three Balbc nu/nu mice in each case. Magnetic resonance imaging (MRI) studies were performed on days 30-40 in each mouse. The images represent an example of mice inoculated with neurosphere or PCTC cells obtained from GBM1. The mice were weighed twice a week. The graph represents mice inoculated with cells derived from GBM1. (D and E) Neurosphere cells of the indicated GBMs were incubated in the absence of growth factors with 100 pM TGFβ1 and/or 2 μM TβRI inhibitor for 7 days and the number of newly formed neurospheres (D) and the total number of cells (E) were determined. (F) Representative images of GBM1 neurospheres treated as indicated in D and E.
FIG. 6. LIF mediates the increase of self-renewal of GIC by TGFβ. (A, B) GBM1, GBM2 and GBM3 neurosphere cells were treated with 100 pM TGFβ1, 20 ng/ml LIF and/or anti-LIF neutralizing antibody and 0.5 pM P6 in the absence of EGF and FGF and the number of newly formed neurospheres (A) or the total number of cells (B) was determined. (C) Representative images of GBM1 neurospheres treated as indicated in A and B.
The self-renewal of the neurospheres was evaluated by seeding an identical number of cells at a very low density in wells of a 96-well plate. The cells were treated, in the absence of growth factors, with the indicated compounds and the total number of new neurospheres formed after 7 days in culture was counted (Lee et al. (2008) Cancer Cell 13, 69-80; Reynolds and Weiss, (1996) Dev Biol 175, 1-13; Seaberg and van der Kooy, (2002) J Neurosci 22, 1784-1793).
It was decided to evaluate the effect of TGFβ on the capacity for self-renewal of GICs following a well described protocol based on the capacity of GICs to generate neurospheres (Reynolds and Weiss, 1996, Dev Biol. 175:1-13; Seaberg and van der Kooy, 2002, J Neurosci 22:1784-1793). The neurospheres derived from patients were disassociated into individual cells, treated with TGFβ or left untreated for 7 days in the absence of growth factors and the newly formed neurospheres and the total number of cells were counted. Following this protocol, the effect of TGFβ on the capacity for self-renewal of the GICs derived from three different patients was evaluated. […] These effects were blocked when an TGFβ I receptor inhibitor (TβRI) was added at the same time as TGFβ.
It was decided to assess whether LIF and JAK-STAT pathway mediated the increase of self-renewal of GICs by TGFβ. For this purpose, the neutralizing antibody against LIP and P6 was used to specifically block the effect of the secreted LIP on cells treated with TGFβ. The neurospheres were disassociated into individual cells and were treated with TGFβ, recombinant LIF, anti-LIF antibody and/or P6. The newly formed neurospheres and the total number of cells were counted. […] The treatment with the neutralizing antibody of LIP decreased the induction of the self-renewal of GICs by TGFβ.

[2] = test system: STAT3 phosphorylation (JAK-STAT pathway); assay: p-STAT3 Western blotting in GBM1 neurospheres; format: cell-based, human; conditions: for phosphorylation of STAT3: 20 ng/ml LIF (time course) or 100 pM TGFβ1 for 4 hours
Description: FIG. 5. TGFβ induces the LIF-JAK-STAT pathway in GEM neurospheres derived from patients. (A) The levels of p-STAT3 and STAT3 were determined by means of Western blotting of neurospheres of the sample of GBM1 treated with 20 ng/ml LIF for the indicated time periods. (B) The neurospheres of the sample of GBM1 were treated with 20 ng/ml LIF and/or 0.5 pM P6 for 15 minutes and the levels of total p-STAT3 and STAT3 were determined by means of Western blotting. (C) The neurospheres of the sample of GBM1 were treated with 100 pM TGFβ1 or the 2 pM TβRI inhibitor for 4 hours in the absence of EFG and FGF and the levels of p-STAT3, STAT3, p-Smad2, Smad2 and α-tubulin were determined by means of Western blotting. (D) the neurospheres of the sample of GBM1 were treated with 100 pM TGFβ1, 0.5 μM P6 or the blocking antibody against LIF for 4 hours in the absence of EGF and FGF and the levels of total p-STAT3 and STAT3 were determined by means of Western blotting.
Genomic DNA of U373MG was used to amplify the −634/+32 region of the human LIF promoter which was cloned into the pGL2-basic luciferase vector. The deletion constructs (−267/+32), and (−73/+32) were generated by means of digestion of the construct (−634/+32). Two point mutations were introduced in positions −183 bp and −184 bp in the construct (−267/+32) to interrupt the Smad binding element (SBE) and generate the construct (−267/+32) mutSBE. TGFβ1, TGFβ2, TGFβ3 (R&D Systems), TβRI inhibitor (SB431542, Tocris), LIF (Chemicon), the neutralizing antibodies against LIF (R&D), JAK inhibitor (tetracyclic pyridone 6 (P6) Calbiochem), the assembly of SMART siRNAs targeted to Smad2, Smad3 and Smad4 (Dharmacon), and the control siRNA siGlo (Dharmacon) were used at the indicated concentrations. The antibodies specific against p-Smad2, Smad2, p-STAT3 (p-Tyr705) and total STAT3 (Cell Signalling) and against Smad2, Smad3 and Smad4 (Hata et al., (2000) Cell 100, 229-240) were used for Western blotting.
In order to distinguish whether the LIF signaling pathway is functional in GEM neurospheres, the neurospheres were treated with recombinant LIF and the levels of phosphorylation of the downstream substrate of the LIF receptor complex, STAT3, were determined. […] Furthermore, the induction of p-STAT3 was prevented by the presence of a pharmacological JAK-specific, tetracyclic pyridone 6 (P6) (Pedranzini et al., 2006, Cancer Res, 66: 9714-9721; Thompson et al., 2002, Bioorg Med Chem Lett, 12:1219-1223) (FIG. 5B). […] It was decided to assess whether LIP was mediating the induction of p-STAT3 by TGFβ. For this purpose, a neutralizing antibody against LIF was used to specifically block the effect of secreted LIP on cells treated with TGFβ. The presence of the neutralizing antibody of LIP decreased the induction of p-STAT3 by TGFβ. Furthermore, the levels of p-STAT3 in cells treated with TGFβ were repressed by means of the treatment with P6 (FIG. 5D).

Row | Molecule | effect of the isolated inhibitor on number of neurospheres and total number of cells ([1]; 2 μM TβRI inhibitor without TGFβ, 7 days, absence of growth factors) | effect on the induction of self-renewal of GICs by TGFβ (number of neurospheres, total number of cells) ([1]; added with 100 pM TGFβ1, 2 μM TβRI inhibitor, anti-LIF neutralizing antibody or 0.5 pM P6, absence of EGF and FGF) | effect on the induction of p-STAT3 by TGFβ ([2]; 100 pM TGFβ1, 4 hours, absence of EGF and FGF, 2 pM TβRI inhibitor, 0.5 μM P6 or blocking antibody against LIF) | number of newly formed neurospheres [1] | total number of cells [1] | phosphorylation of STAT3 [2]
1 | NC(=O)c1ccc(-c2nc(-c3ccc4c(c3)OCO4)c(-c3ccccn3)[nH]2)cc1 [TβRI inhibitor, SB431542, reference compound] | no significant effect | blocked | prevented that effect |  |  | 
2 | LIF: recombinant leukemia inhibitory factor, an IL-6 type cytokine (Chemicon) |  |  |  | increased | increased | induced a quick phosphorylation of STAT3
3 | TGFβ: TGFβ1 (R&D Systems), used at 100 pM according to the figure legends |  |  |  | significantly increased | increased | induced the phosphorylation of STAT3
